Data published in paper PMC10454726 (International Journal of Molecular Sciences, 2023).

Legend:
[1] = molecular target: α-glucosidase from Rominococcus obeum (Blautia obeum, UniProt A5ZY13); assay: Enzymatic kinetics of α-glucosidase inhibition (pNPG substrate); assay type: biochemical
Procedure: The kinetic studies for PTP1B and α-glucosidase were carried out under the same conditions described in the references.

[2] = tested on: streptozotocin-induced diabetic rats; assay: Oral glucose tolerance test in streptozotocin-induced diabetic rats; assay type: in vivo, Wistar rat; design: AUC of the OGTT: unit not given here
Procedure: (§1) After a week of acclimation, 35 male Wistar rats were given a single intraperitoneal dose of STZ (Sigma Chemical Co. Toluca, Estado de México, Mexico) at a dosage of 45 mg/kg of body weight, after fasting for 12 h overnight with free access to water. To prevent initial drug-induced hypoglycemia mortality, these animals were given a 10% sucrose solution 24 h after administration. STZ was dissolved in 0.1 M of sodium citrate buffer (pH 4.5) and administered in a final volume of 5 mL/kg. A week after STZ injection, diabetes in streptozotocin rats was confirmed by measuring fasting blood glucose (by glucose oxidase method). Animals with a blood glucose (tail vein) above 126 mg/dL were considered diabetic and used for the experiment to create groups 2, 3, 4, 5, 6, and 7 [1, 13]. Blood glucose levels were measured using a glucometer (Accu-Chek Active, Roche, Mannheim, Germany) and reactive strips (Accu-Chek Active Glucose test strips, Roche). The presence of hyperglycemia and insulin level confirmed a model very similar to T2D in humans. For the pharmacological study, the final number of animals was 35 male rats, with 3 rats being sacrificed during the treatment stage. One was administered with FC-114 and two with acarbose. The first rat was damaged during oral glucose administration in the OGTT at week 5, and the other rats had gastrointestinal complications in week 7.
(§2) The diabetic animals in group 2 (untreated) were given 4% v/v aqueous EtOH solution (vehicle of treatments) in a volume of 6.5 mL/kg body weight. The other groups (3–7) received different treatments for 14 days (weeks 5 to 7). […] All of the treatments were at equimolar doses of PIO and adjusted to the weekly weight of each rat. […] The commercial PIO tablet (30 mg) was crushed in 7.5 mL of vehicle and given to each animal in 4.0 mg/mL of suspension. The FC-114 and FC-122 suspensions were created at 6.2 and 6.0 mg/mL, respectively. The commercial acarbose tablet (50 mg) was crushed in 7.5 mL of the vehicle and given to each animal in a suspension of 6.6 mg/mL. Each suspension was used within 2 days of its preparation, and the administration volume was near to 2.5 mL for each rat.
The OGTT was carried out in weeks 3, 4, 5, 6, and 7. Prior to the OGTT, all animal groups fasted overnight for eight hours with free access to water. Each rat was weighed and then received a 2 g/kg glucose overload orally and blood samples were taken from the tail vein [13, 97]. Glucose levels were measured using a glucometer (Accu-Chek Active, Roche, Mannheim, Germany) at 0, 30, 60, 90, 120, and 180 min after glucose administration. The AUC of the OGTT was calculated using the blood glucose concentration over time and the GraphPad Prism 8.0.1 software package (GraphPad Software; Science Inc., San Diego, CA, USA) was used to compare the effectiveness of the treatments.

[3] = tested on: streptozotocin-induced diabetic rats; assay: Animal weight, food and water consumption in streptozotocin-induced diabetic rats; assay type: in vivo, Wistar rat
Procedure: (§3) Six female (three for each compound: FC-114 and FC-122) (220 ± 10 g, for the acute toxicity assay) and forty male (215 ± 20 g, for the pharmacologic study) albino Wistar rats were acquired from the Isolation and Animal Facility Unit, Facultad de Estudios Superiores Cuautitlán (FESC), Universidad Nacional Autónoma de México (UNAM). They were kept in standard polypropylene boxes under controlled temperature (24 ± 4 °C) on a 12 h light/dark cycle and provided conventional food (formula 5001, Rat Chow) and purified water ad libitum. […] At the end of the experiment, the animals were taken to the humanitarian endpoint by the intraperitoneal (ip) administration of 75 mg/kg of sodium pentobarbital to perform a necropsy in the bioterium of FESC, UNAM. During the necropsy, blood serum was extracted to quantify glucose, triacylglycerides, cholesterol, and insulin. The study was conducted based on the guidelines of the Declaration of Helsinki and approved by the Institutional Review Board: Internal Committee for the Care and Use of Experimentation Animals (CICUAE, according to the initials in Spanish, C23_02 on March 2023) of the FESC UNAM (Mexico). It complies with the Mexican norm for this matter (NOM-062-ZOO-1999, Technical Specifications for the Production, Care, and Use of Laboratory Animals, SAGARPA), as well as the Guide for the Care and Use of Laboratory Animals of the National Research Council and National Institutes of Health (NIH Publications No. 8023, revised 1978).
as §1, §2

[4] = tested on: streptozotocin-induced diabetic rats; assay: Weekly fasting glucose in streptozotocin-induced diabetic rats; assay type: in vivo, Wistar rat; conditions: after 7 and 14 days of treatment (weeks 6 and 7)
Procedure: as §1, §2

[5] = tested on: female Wistar rats; assay: Acute oral toxicity (OECD guideline 425); assay type: in vivo; conditions: for toxic effects at the macroscopic level (necropsy images): 175, 550, and 2000 mg/kg; for AOT (acute oral toxicity): female Wistar rats
Procedure: as §3, with “They” for “Six female (three for each compound: FC-114 and FC-122) (220 ± 10 g, for the acute toxicity assay) and forty male (215 ± 20 g, for the pharmacologic study) albino Wistar rats were acquired from the Isolation and Animal Facility Unit, Facultad de Estudios Superiores Cuautitlán (FESC), Universidad Nacional Autónoma de México (UNAM). They”
The female Wistar rats (n = 3) were used to obtain the AOT based on the procedures of Guide Number 425 of the Organization for Economic Cooperation and Development (OECD). The rats were closely monitored for 48 h after receiving oral doses of FC-114 or FC-122. Rat 1 received 175 mg/kg, rat 2 received 550 mg/kg, and rat 3 received 2000 mg/kg. They were then observed for 14 days until a necropsy to check for any toxic effects.

[6] = Week 5 (day 1 of treatment), oral, glibenclamide 0.6, FC-114 51.3, FC-122 49.1, PIO 30, acarbose 54.3 mg/kg/day
[7] = Week 6 (day 7 of treatment), same doses
[8] = Week 7 (day 14 of treatment), same doses
[9] = after 7 days of treatment (weeks 5 to 6)

Sequence of α-glucosidase from Rominococcus obeum (A5ZY13 entry or part of it): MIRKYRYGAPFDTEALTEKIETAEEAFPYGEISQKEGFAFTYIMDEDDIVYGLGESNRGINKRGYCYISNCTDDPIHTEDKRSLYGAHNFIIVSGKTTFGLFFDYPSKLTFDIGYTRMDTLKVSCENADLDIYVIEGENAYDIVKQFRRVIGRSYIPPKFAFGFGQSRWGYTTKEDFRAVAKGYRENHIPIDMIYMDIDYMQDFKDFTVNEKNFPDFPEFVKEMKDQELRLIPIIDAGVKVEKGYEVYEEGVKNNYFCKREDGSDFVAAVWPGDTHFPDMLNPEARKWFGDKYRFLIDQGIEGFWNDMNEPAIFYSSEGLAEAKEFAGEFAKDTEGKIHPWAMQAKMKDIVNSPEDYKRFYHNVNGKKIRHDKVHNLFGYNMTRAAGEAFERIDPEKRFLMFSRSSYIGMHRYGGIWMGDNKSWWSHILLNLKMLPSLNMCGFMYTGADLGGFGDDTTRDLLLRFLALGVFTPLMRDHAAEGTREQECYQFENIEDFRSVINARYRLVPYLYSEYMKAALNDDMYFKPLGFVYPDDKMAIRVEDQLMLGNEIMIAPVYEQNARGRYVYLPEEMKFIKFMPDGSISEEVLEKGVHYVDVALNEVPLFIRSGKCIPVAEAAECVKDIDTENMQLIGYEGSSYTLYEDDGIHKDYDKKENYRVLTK

Structure (SMILES)	AUC of the OGTT [2, 6]	AUC of the OGTT [2, 7]	AUC of the OGTT [2, 8]	food intake [3, 9]	fasting glucose levels [4]	toxic effects at the macroscopic level (necropsy images) [5]	Toxic Effects ([5]; dose 175 mg/kg oral)	Weight Gain for 2 Weeks ([5]; dose 175 mg/kg oral) [g]	Toxic Effects ([5]; dose 550 mg/kg oral)	Weight Gain for 2 Weeks ([5]; dose 550 mg/kg oral) [g]	Toxic Effects ([5]; dose 2000 mg/kg oral)	Weight Gain for 2 Weeks ([5]; dose 2000 mg/kg oral) [g]	AOT (acute oral toxicity) [5]	also measured
CC1(C)c2[nH]c3ccc(C(F)(F)F)cc3c2C[C@]2(C)[C@H]3C(=O)C=C4[C@@H]5C[C@@](C)(C(=O)O)CC[C@]5(C)CC[C@@]4(C)[C@]3(C)CC[C@@H]12 [FC-114]	53,895	62,944	57,131	maintained their increased food consumption	halt the continuous increase of glucose levels	No toxic effects were observed	None	22.8	None	23.4	None	21.5	higher than 2000 mg/kg	α-glucosidase inhibitory activity ([1]; range of concentrations tested): not active; animal weight compared to the untreated group (T2D) ([3]; 14 days of treatment, weeks 5 to 7): difference in weight; food intake ([3]; after 14 days of treatment (weeks 6 to 7)): tended to decrease toward normal levels
Cc1ccc(-n2ncc3c2C(C)(C)[C@@H]2CC[C@]4(C)[C@H](C(=O)C=C5[C@@H]6C[C@@](C)(C(=O)O)CC[C@]6(C)CC[C@]54C)[C@@]2(C)C3)cc1 [FC-122]	58,941	57,003	53,076	reduced food intake to near-normal levels	halt the continuous increase of glucose levels	No toxic effects were observed	None	23.5	None	25.2	None	26.4	higher than 2000 mg/kg	Inhibition type (α-glucosidase) ([1]; Lineweaver-Burk plots): linear-mixed type; Ki ([1]; substrate pNPG, Lineweaver-Burk): 5.2 µM; fold better potency than acarbose (Ki) ([1]; vs acarbose): ~ 5 fold; glucose blood levels in OGTT compared to untreated animals ([2]; after 14 days of administration, ANOVA/Bonferroni): ranked third; water consumption ([3]; after 14 days of administration): decreased water consumption compared to acarbose and FC-114
